Test results taken from publication PMC11856857, “Protease-Resistant, Broad-Spectrum Antimicrobial Peptides with High Antibacterial and Antifungal Activity” (Life, 2025).
≈ marks a conversion by molar mass, not a printed value. Entries after “also recorded” stand apart in the source; their conditions may differ. Read-outs that look alike come from different tables or passages of the source. Where a SMILES comes first, the peptide text is derived from it. Where no end group is shown, it is not given here.

Experiments:
S. aureus ATCC 29213 [1] = format: cell-based, Staphylococcus aureus
E. coli ATCC 25922 = format: cell-based, Escherichia coli
P. aeruginosa ATCC 27853 = format: cell-based, Pseudomonas aeruginosa
C. albicans ATCC 10231 = format: cell-based, Candida albicans
human erythrocytes = format: cell-based; details: pH 7.2
Description: Permission to acquire the fresh human blood used for this experiment was granted by the […] University Local Ethics Committee (No. 2023-2/32, 27 January 2023). First, 30 μL of fresh male human blood was suspended with 10 mL of autoclaved Tris saline buffer (TBS buffer, 10 mM Tris, 150 mM NaCl, pH 7.2) and centrifuged thrice for 5 min at 1500 rpm. […] Three replicates were performed for each peptide dose. A sample of 20% Triton-X 100/DMSO was used as a positive control. After incubation, the 96-well plate was centrifuged at 1500 rpm for 10 min. Absorbance was measured at 414 nm using a microplate reader (Gen5 Synergy HT BioTek). The % lysis of the peptide was calculated as follows:% lysis = OD414 - OD414 (blank)/OD414 (total lysis - blank) × 100

[2] = test system: resistant Klebsiella pneumoniae (KP) strain; format: cell-based
HaCaT cell line = format: cell-based, human; details: 24 h
Description: (§1) 3T3 and HaCaT cells were grown in DMEM consisting of 1% pen/strep and 10% FBS. A total of 5 × 10^4 cells were loaded into each well of a 96-well plate and incubated at 37 °C using a 5% CO2 incubator. All samples were measured in triplicate between 0.5–32 µg/mL concentrations and incubated at 37 °C for 24 h in a 5% CO2 incubator. Only cells and Mag-2 were used as negative and positive controls, respectively. After 24 h, cell cytotoxicity was evaluated using a cell proliferation kit (MTT, Roche, Basel, Switzerland) following the kit protocol and analyzed at 550 nm and 690 nm using a microplate reader (Gen5 Synergy HT BioTek). The concentration of peptides that killed 50% of the cells was determined as the IC50 in the cytotoxicity experiments.

3t3 cell line = format: cell-based, mouse; details: 24 h
Description: as §1

proteinase K = molecular target: T1, proteinase K (Parengyodontium album, UniProt P06873); experiment: Stability toward enzymatic degradation (protease resistance assay); format: in vitro ADME; details: peptide 1 mg/mL in TBS (50 mM Tris, 150 mM NaCl, pH 7.6) with 10% DMSO; proteinase K 1 mg/mL (30 U/mg); 37 °C, overnight (also 10 min, 30 min); HPLC at 214 nm
T1 construct: purchased Qiagen
Description: Peptide solutions were prepared at a final concentration of 1 mg/mL in TBS buffer (50 mM Tris, 150 mM NaCl, pH 7.6) including 10% DMSO. The proteinase K solution was adjusted to 1 mg/mL (enzyme activity = 30 U/mg). The peptide solution was then incubated at 37 °C overnight in an orbital shaker. After incubation, the reaction was blocked by adding 1% TFA (100 µL) in water. Peptide solutions with/without the proteinase K enzyme were analyzed at 214 nm using HPLC with an analytic column (AdvanceBio Peptide Plus, 2.1 × 150 mm, 2.7 µm, LC column, Agilent Technologies, Santa Clara, CA, USA) following the linear gradient method (30 min in a range of 5–80% acetonitrile including 0.025% TFA). MIC experiments were repeated to measure biological activities after treating the peptides with proteinase K.

S. aureus ATCC 29213 [3] = experiment: Resistance development by serial passages; format: cell-based, Staphylococcus aureus; details: for MIC: Staphylococcus aureus

T1 sequence (P06873 106-384): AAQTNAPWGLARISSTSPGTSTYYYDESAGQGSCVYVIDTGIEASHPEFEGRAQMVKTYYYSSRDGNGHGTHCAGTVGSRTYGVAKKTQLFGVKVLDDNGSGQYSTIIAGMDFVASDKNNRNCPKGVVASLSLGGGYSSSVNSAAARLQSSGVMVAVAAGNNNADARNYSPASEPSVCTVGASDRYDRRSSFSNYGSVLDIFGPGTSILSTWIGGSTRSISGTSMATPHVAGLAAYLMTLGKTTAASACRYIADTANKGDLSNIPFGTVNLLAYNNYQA

Molecule	MIC S. aureus (S. aureus ATCC 29213 [1]) [µg/mL]	MIC E. coli (E. coli ATCC 25922) [µg/mL]	MIC P. aeruginosa (P. aeruginosa ATCC 27853) [µg/mL]	MIC C. albicans (C. albicans ATCC 10231) [µg/mL]	further results
CC(C)C[C@@H](NC(=O)[C@@H](CC(C)C)NC(=O)[C@@H](CC(C)C)NC(=O)[C@@H](CCCNC(=N)N)NC(=O)[C@@H](CC(C)C)NC(=O)[C@@H](CC(C)C)NC(=O)[C@@H](CCCNC(=N)N)NC(=O)[C@@H](CC(C)C)NC(=O)[C@@H](CC(C)C)NC(=O)[C@H](N)CCCNC(=N)N)C(N)=O [D-TN3] (HELM PEPTIDE1{[dR].[dL].[dL].[dR].[dL].[dL].[dR].[dL].[dL].[dL].[am]}$$$$V2.0)	8 (≈ 6.26 µM)	2 (≈ 1.57 µM)	4 (≈ 3.13 µM)	0.25 (≈ 0.196 µM)	HC50 (human erythrocytes): 32.63 µg/mL
RVVRVVRVVV-NH2 [TN3V9]	16	64	256	128	
CC(C)C[C@@H](NC(=O)[C@H](N)CCCNC(=N)N)C(=O)N[C@H](CC(C)C)C(=O)N[C@H](CCCNC(=N)N)C(=O)N[C@H](CC(C)C)C(=O)N[C@H](CC(C)C)C(=O)N[C@H](CC(C)C)C(=O)N[C@H](CC(C)C)C(=O)N[C@H](CCCNC(=N)N)C(=O)N[C@H](CC(C)C)C(=O)N[C@H](CC(C)C)C(=O)N[C@H](CCCNC(=N)N)C(N)=O [D-TN1] (HELM PEPTIDE1{[dR].[dL].[dL].[dR].[dL].[dL].[dL].[dL].[dR].[dL].[dL].[dR].[am]}$$$$V2.0)	4 (≈ 2.59 µM)	8 (≈ 5.17 µM)	4 (≈ 2.59 µM)	1 (≈ 0.646 µM)	HC50 (human erythrocytes): 77.63 µg/mL
RALRALARALR-NH2 [TN6A1]	128	128	256	256	
RLLRLLRLLLRLLRLLR-NH2 [TN6(2)]	16	16	64	32	
RLLRLLRLLL-NH2 [TN3-amide]	8	8	4	2	
RLLRLLLRLLR [D/L-TN6, TN6 template, arginine in L-form, leucine in L- and D-forms]					MIC C. albicans (C. albicans ATCC 10231; CLSI M27-A3): 8 µg/mL
RIIRIIIRIIR-NH2 [TN6I1]	16	32	128	128	
RLLRLLLLRLLR-NH2 [TN1]	4	2	32	0.5	
RRLLRLLLRLLR-NH2 [RTN6]	1	2	8	4	
RLLRLLRLLLL-NH2 [TN8]	8	4	256	0.5	
Polymyxin B [reference compound]					MIC KP1 ([2]; Table S2, strain KP1): 16 µg/mL; MIC KP2 ([2]; Table S2, strain KP2): 2 µg/mL; MIC KP8 ([2]; Table S2, strain KP8): 64 µg/mL; MIC KP9 ([2]; Table S2, strain KP9): 2 µg/mL; MIC KP13 ([2]; Table S2, strain KP13): 16 µg/mL; MIC KP22 ([2]; Table S2, strain KP22): 8 µg/mL; MIC KP28 ([2]; Table S2, strain KP28): 16 µg/mL; MIC KP29 ([2]; Table S2, strain KP29): 16 µg/mL; MIC KP35 ([2]; Table S2, strain KP35): 8 µg/mL; MIC KP40 ([2]; Table S2, strain KP40): 4 µg/mL; MIC KP41 ([2]; Table S2, strain KP41): 4 µg/mL; MIC KP42 ([2]; Table S2, strain KP42): 8 µg/mL; MIC KP46 ([2]; Table S2, strain KP46): 16 µg/mL; MIC KP52 ([2]; Table S2, strain KP52): 8 µg/mL
RAARAAARAAR-NH2 [TN6A5]	>1024	1024	>1024	128	
RVLRVLRVLL-NH2 [TN3V1]	8	16	32	4	
RLLRLLLRLLR-NH2 [TN6]	2	2	8	0.5	IC50 HaCaT (HaCaT cell line): 15.32 µg/mL; IC50 3t3 (3t3 cell line): 29.80 µg/mL; Stability toward proteinase K (HPLC) (proteinase K): fragmented into different-sized molecules; also recorded: disappeared
RILRILIRLIR-NH2 [TN6I2]	2	16	32	128	
RLLRLLRLLL [TN3-carboxy]	16	4	32	1	
CNC(C)C1CCC(N)C(OC2C(N)CC(N)C(OC3OCC(C)(O)C(NC)C3O)C2O)O1 (centres unmarked) [gentamicin]					MIC value in the sixth passage (S. aureus ATCC 29213 [3]; S. aureus ATCC 29213, continuous serial passaging): 8 µg/mL (≈ 16.8 µM); MIC (S. aureus ATCC 29213 [3]; ATCC29213, read-out: MIC value in the sixth passage): 8 µg/mL (≈ 16.8 µM); MIC (S. aureus ATCC 29213 [3]; ATCC29213, read-out: initial MIC value): 1 µg/mL (≈ 2.09 µM)
